Results: patent US6551390B1, “Composition containing two different disazodyestuffs useful for ink jet recording” (Avecia Limited, priority 1998, dated 2003)

Assay: Aqueous solubility of dyes and dye composition
Assay type: physicochemical
Conditions: aqueous solubility at 20° C. and pH 9.5
Description: The aqueous solubility of Composition (1), Dye (A) and Dye (B) at 20° C. and pH 9.5 is: […]

Solubility (%): 10.7%
Compound: COc1cc(N=Nc2cccc(S(=O)(=O)O)c2)ccc1NC(=O)Nc1ccc(N=Nc2cccc(S(=O)(=O)O)c2)cc1OC [Dye (A), CI Direct Yellow 132]
